Results from US20260232767A1, “INTERLEUKIN-23 RECEPTOR ANTAGONIST PEPTIDES FOR USE IN THE TREATMENT OF PSORIASIS” (Janssen Pharmaceutica NV, priority 2023, published 2026).

System: subjects with moderate-to-severe plaque psoriasis
Test: PSSD symptom and sign scores, Example 2
Assay type: in vivo, human
Settings: for Change from Baseline in PSSD Sign Score, LSMean / Change from Baseline in PSSD Symptom Score, LSMean: MMRM

## CC(=O)NCCCC[C@@H]1NC(=O)[C@H](Cc2c[nH]c3c(C)cccc23)NC(=O)[C@H]([C@@H](C)O)NC(=O)[C@H](CC(N)=O)NC(=O)[C@@H](NC(C)=O)C(C)(C)SSC(C)(C)[C@@H](C(=O)N[C@@H](Cc2ccc(OCCN)cc2)C(=O)N[C@@H](Cc2ccc3ccccc3c2)C(=O)NC2(C(=O)N[C@@H](CCC(=O)O)C(=O)N[C@@H](CC(N)=O)C(=O)N[C@@H](Cc3cccnc3)C(=O)N(C)CC(N)=O)CCOCC2)NC1=O [IL-23 receptor antagonist peptide, Ac-[Pen]*-N-T-[W(7-Me)]-[Lys(Ac)]-[Pen]*-Phe[4-(2-aminoethoxy)]-[2-Nal]-[THP]-E-N-[3-Pal]-Sarc-NH2 (*[Pen]-[Pen]* formdisulfidebond)]
Week 32, 100 mg QD
  Change from Baseline in PSSD Symptom Score, Mean: −28.0
  Change from Baseline in PSSD Symptom Score, Median: −25.0
  Change from Baseline in PSSD Sign Score, LSMean: −45.8
  Change from Baseline in PSSD Symptom Score, LSMean: −36.4
Week 32, 100 mg QD, Baseline Sign Score ≥1, N=43
  Subjects Achieving PSSD Sign Score 0 (%): (14.0%)
Week 32, 100 mg QD, Baseline Symptom Score ≥1, N=43
  Subjects Achieving PSSD Symptom Score 0 (%): (18.6%)
Week 32, Placebo → 100 mg QD
  Change from Baseline in PSSD Sign Score, Mean: −42.3
  Change from Baseline in PSSD Sign Score, Median: −45.0
  Change from Baseline in PSSD Symptom Score, Mean: −31.9
  Change from Baseline in PSSD Symptom Score, Median: −36.0
  Change from Baseline in PSSD Sign Score, LSMean: −41.8
  Change from Baseline in PSSD Symptom Score, LSMean: −33.9
Week 32, Placebo → 100 mg QD, Baseline Sign Score ≥1, crossed-over subjects only
  Subjects Achieving PSSD Sign Score 0 (%): (17.1%)
Week 32, Placebo → 100 mg QD, Baseline Symptom Score ≥1, crossed-over subjects only
  Subjects Achieving PSSD Symptom Score 0 (%): (20.0%)
Week 40, 25 mg BID
  Change from Baseline in PSSD Sign Score, Mean: −34.1
  Change from Baseline in PSSD Sign Score, Median: −34.0
  Change from Baseline in PSSD Symptom Score, Mean: −30.0
  Change from Baseline in PSSD Symptom Score, Median: −32.0
  Change from Baseline in PSSD Sign Score, LSMean: −34.9
  Change from Baseline in PSSD Symptom Score, LSMean: −30.5
Week 40, 25 mg BID, Baseline Sign Score ≥1, N=41
  Subjects Achieving PSSD Sign Score 0 (%): (4.9%)
Week 40, 25 mg BID, Baseline Symptom Score ≥1, N=41
  Subjects Achieving PSSD Symptom Score 0 (%): (9.8%)
Week 40, 25 mg QD
  Change from Baseline in PSSD Sign Score, Mean: −36.9
  Change from Baseline in PSSD Sign Score, Median: −36.0
  Change from Baseline in PSSD Symptom Score, Mean: −33.9
  Change from Baseline in PSSD Symptom Score, Median: −35.0
  Change from Baseline in PSSD Sign Score, LSMean: −29.4
  Change from Baseline in PSSD Symptom Score, LSMean: −25.9
Week 40, 25 mg QD, Baseline Sign Score ≥1, N=43
  Subjects Achieving PSSD Sign Score 0 (%): (11.6%)
Week 40, 25 mg QD, Baseline Symptom Score ≥1, N=43
  Subjects Achieving PSSD Symptom Score 0 (%): (20.9%)
Week 40, 50 mg QD
  Change from Baseline in PSSD Sign Score, Mean: −39.6
  Change from Baseline in PSSD Sign Score, Median: −42.0
  Change from Baseline in PSSD Symptom Score, Mean: −34.9
  Change from Baseline in PSSD Symptom Score, Median: −32.0
  Change from Baseline in PSSD Sign Score, LSMean: −39.5
  Change from Baseline in PSSD Symptom Score, LSMean: −32.7
Week 40, 50 mg QD, Baseline Sign Score ≥1, N=43
  Subjects Achieving PSSD Sign Score 0 (%): (9.3%)
Week 40, 50 mg QD, Baseline Symptom Score ≥1, N=42
  Subjects Achieving PSSD Symptom Score 0 (%): (23.8%)
Week 40, 100 mg BID
  Change from Baseline in PSSD Sign Score, Mean: −52.4
  Change from Baseline in PSSD Sign Score, Median: −54.5
  Change from Baseline in PSSD Symptom Score, Mean: −47.5
  Change from Baseline in PSSD Symptom Score, Median: −49.5
  Change from Baseline in PSSD Sign Score, LSMean: −51.4
  Change from Baseline in PSSD Symptom Score, LSMean: −43.5
Week 40, 100 mg BID, Baseline Sign Score ≥1, N=42
  Subjects Achieving PSSD Sign Score 0 (%): (19.0%)
Week 40, 100 mg BID, Baseline Symptom Score ≥1, N=42
  Subjects Achieving PSSD Symptom Score 0 (%): (28.6%)
Week 40, 100 mg QD
  Change from Baseline in PSSD Sign Score, Mean: −42.4
  Change from Baseline in PSSD Sign Score, Median: −43.0
  Change from Baseline in PSSD Symptom Score, Mean: −28.2
  Change from Baseline in PSSD Symptom Score, Median: −24.0
  Change from Baseline in PSSD Sign Score, LSMean: −45.6
  Change from Baseline in PSSD Symptom Score, LSMean: −36.1
Week 40, 100 mg QD, Baseline Sign Score ≥1, N=43
  Subjects Achieving PSSD Sign Score 0 (%): (18.6%)
Week 40, 100 mg QD, Baseline Symptom Score ≥1, N=43
  Subjects Achieving PSSD Symptom Score 0 (%): (18.6%)
Week 40, Placebo → 100 mg QD
  Change from Baseline in PSSD Sign Score, Mean: −36.6
  Change from Baseline in PSSD Sign Score, Median: −48.5
  Change from Baseline in PSSD Symptom Score, Mean: −23.8
  Change from Baseline in PSSD Symptom Score, Median: −24.0
  Change from Baseline in PSSD Sign Score, LSMean: −36.9
  Change from Baseline in PSSD Symptom Score, LSMean: −27.0
Week 40, Placebo → 100 mg QD, Baseline Sign Score ≥1, crossed-over subjects only
  Subjects Achieving PSSD Sign Score 0 (%): (14.3%)
Week 40, Placebo → 100 mg QD, Baseline Symptom Score ≥1, crossed-over subjects only
  Subjects Achieving PSSD Symptom Score 0 (%): (25.7%)
Week 52, 25 mg BID
  Change from Baseline in PSSD Sign Score, Mean: −36.6
  Change from Baseline in PSSD Sign Score, Median: −38.5
  Change from Baseline in PSSD Symptom Score, Mean: −31.2
  Change from Baseline in PSSD Symptom Score, Median: −27.0
  Change from Baseline in PSSD Sign Score, LSMean: −37.2
  Change from Baseline in PSSD Symptom Score, LSMean: −31.4
Week 52, 25 mg BID, Baseline Sign Score ≥1, N=41
  Subjects Achieving PSSD Sign Score 0 (%): (12.2%)
Week 52, 25 mg BID, Baseline Symptom Score ≥1, N=41
  Subjects Achieving PSSD Symptom Score 0 (%): (17.1%)
Week 52, 25 mg QD
  Change from Baseline in PSSD Sign Score, Mean: −35.2
  Change from Baseline in PSSD Sign Score, Median: −32.5
  Change from Baseline in PSSD Symptom Score, Mean: −30.1
  Change from Baseline in PSSD Symptom Score, Median: −35.0
  Change from Baseline in PSSD Sign Score, LSMean: −27.9
  Change from Baseline in PSSD Symptom Score, LSMean: −22.3
Week 52, 25 mg QD, Baseline Sign Score ≥1, N=43
  Subjects Achieving PSSD Sign Score 0 (%): (16.3%)
Week 52, 25 mg QD, Baseline Symptom Score ≥1, N=43
  Subjects Achieving PSSD Symptom Score 0 (%): (18.6%)
Week 52, 50 mg QD
  Change from Baseline in PSSD Sign Score, Mean: −39.2
  Change from Baseline in PSSD Sign Score, Median: −45.0
  Change from Baseline in PSSD Symptom Score, Mean: −35.2
  Change from Baseline in PSSD Symptom Score, Median: −34.0
  Change from Baseline in PSSD Sign Score, LSMean: −39.0
  Change from Baseline in PSSD Symptom Score, LSMean: −33.0
Week 52, 50 mg QD, Baseline Sign Score ≥1, N=43
  Subjects Achieving PSSD Sign Score 0 (%): (11.6%)
Week 52, 50 mg QD, Baseline Symptom Score ≥1, N=42
  Subjects Achieving PSSD Symptom Score 0 (%): (21.4%)
Week 52, 100 mg BID
  Change from Baseline in PSSD Sign Score, Mean: −53.1
  Change from Baseline in PSSD Sign Score, Median: −55.0
  Change from Baseline in PSSD Symptom Score, Mean: −47.7
  Change from Baseline in PSSD Symptom Score, Median: −53.0
  Change from Baseline in PSSD Sign Score, LSMean: −51.9
  Change from Baseline in PSSD Symptom Score, LSMean: −44.0
Week 52, 100 mg BID, Baseline Sign Score ≥1, N=42
  Subjects Achieving PSSD Sign Score 0 (%): (16.7%)
Week 52, 100 mg BID, Baseline Symptom Score ≥1, N=42
  Subjects Achieving PSSD Symptom Score 0 (%): (26.2%)
Week 52, 100 mg QD
  Change from Baseline in PSSD Sign Score, Mean: −43.1
  Change from Baseline in PSSD Sign Score, Median: −43.0
  Change from Baseline in PSSD Symptom Score, Mean: −29.4
  Change from Baseline in PSSD Symptom Score, Median: −28.0
  Change from Baseline in PSSD Sign Score, LSMean: −45.8
  Change from Baseline in PSSD Symptom Score, LSMean: −36.5
Week 52, 100 mg QD, Baseline Sign Score ≥1, N=43
  Subjects Achieving PSSD Sign Score 0 (%): (14.0%)
Week 52, 100 mg QD, Baseline Symptom Score ≥1, N=43
  Subjects Achieving PSSD Symptom Score 0 (%): (30.2%)
Week 52, Placebo → 100 mg QD
  Change from Baseline in PSSD Sign Score, Mean: −42.8
  Change from Baseline in PSSD Sign Score, Median: −48.5
  Change from Baseline in PSSD Symptom Score, Mean: −29.5
  Change from Baseline in PSSD Symptom Score, Median: −30.0
  Change from Baseline in PSSD Sign Score, LSMean: −43.1
  Change from Baseline in PSSD Symptom Score, LSMean: −32.4
Week 52, Placebo → 100 mg QD, Baseline Sign Score ≥1, crossed-over subjects only
  Subjects Achieving PSSD Sign Score 0 (%): (22.9%)
Week 52, Placebo → 100 mg QD, Baseline Symptom Score ≥1, crossed-over subjects only
  Subjects Achieving PSSD Symptom Score 0 (%): (34.3%)
